From patent US20240360165A1, “INHIBITORS OF CYCLIN DEPENDENT KINASE 7 (CDK7)” (Syros Pharmaceuticals, Inc., priority 2016, published 2024)
Where two headings read alike, the source gives them in different places.

Experiments:
[1] = target: CDK7/Cyclin H/MAT1 complex (Homo sapiens, UniProt P50613); assay: CDK7 inhibition assay (Caliper/LabChip EZ Reader kinase assay); assay type: biochemical; settings: Table 1, CDK7/Cyclin H/MAT1 6 nM, ATP 2 mM, 35 min at 27° C.
In short: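 A Perkin Elmer Caliper/LabChip EZ Reader (Waltham, MA) platform served as the basis for this CDK7 kinase inhibition assay. The work was carried out by Biortus Biosciences, located in Jiangyin, Jiangsu Province, P.R. of China. Each CDK studied had its own kinase assay, and compounds were evaluated for their ability to block CDK7 activity.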

CDK9/Cyclin T1 complex = CDK9/Cyclin T1 complex (Homo sapiens, UniProt P50750); assay: CDK9 inhibition assay (Caliper/LabChip EZ Reader kinase assay); assay type: biochemical; settings: Table 1, CDK9/Cyclin T1 8 nM, ATP 2 mM, 15 min at 27° C.
In short: (§1)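 Activity read as fluorescent peptide conversion on a LabChip EZ Reader. For CDK2/Cyclin E1 (0.5 nM), substrate was 5-FAM-CDK7tide (2 μM) with 2 mM MgCl2; for CDK9/Cyclin T1 (8 nM), 5-FAM-CDK9tide (2 μM) with 10 mM MgCl2.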

[2] = target: T1, CDK12 (aa686-1082)/Cyclin K complex (Homo sapiens, UniProt Q9NYV4); assay: CDK12 inhibition assay (Caliper/LabChip EZ Reader kinase assay); assay type: biochemical; settings: Table 1, CDK12 (aa686-1082)/Cyclin K 50 nM, ATP 2 mM, 3 hr at 27° C.
T1 construct: CDK12 (aa686-1082)/Cyclin K complex

CDK2/Cyclin E1 complex = CDK2/Cyclin E1 complex (Homo sapiens, UniProt P24941); assay: CDK2 inhibition assay (Caliper/LabChip EZ Reader kinase assay); assay type: biochemical; settings: Table 1, CDK2/Cyclin E1 0.5 nM, ATP 2 mM, 35 min at 27° C.
In short: as §1

A673 cells = assay: Inhibition of proliferation of A673 cells (CyQUANT, 72 hour); assay type: cell-based, human; settings: A673 cells, 72 hour, CyQUANT, read-out: Inhibition of Proliferation of A673 Cells (calculated IC50)
In short: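 Proliferation read-out by CyQUANT after a 72 h exposure, compounds spanning 4 μM–[…] in half-log steps. A673 cells cultured at 37° C under 5% CO2 in DMEM supplemented with 10% FBS plus 1 mM sodium pyruvate.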

HCC70 cells = assay: Inhibition of proliferation of HCC70 cells (CyQUANT Direct Cell Proliferation Assay, 72 hour); assay type: cell-based, human
In short: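 Human triple-negative breast cancer HCC70 cells cultured at 37° C, 5% CO2, with compound for 72 hour. Anti-proliferative effect read by CyQUANT Direct Cell Proliferation Assay. Dinaciclib, a CDK inhibitor analog and triptolide served as positive controls.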

[3] = Homo sapiens, HCC70, 72 h, read-out: Inhibition of Proliferation of HCC70 Cells (calculated IC50)

T1 sequence (Q9NYV4 686-1082, species assumed): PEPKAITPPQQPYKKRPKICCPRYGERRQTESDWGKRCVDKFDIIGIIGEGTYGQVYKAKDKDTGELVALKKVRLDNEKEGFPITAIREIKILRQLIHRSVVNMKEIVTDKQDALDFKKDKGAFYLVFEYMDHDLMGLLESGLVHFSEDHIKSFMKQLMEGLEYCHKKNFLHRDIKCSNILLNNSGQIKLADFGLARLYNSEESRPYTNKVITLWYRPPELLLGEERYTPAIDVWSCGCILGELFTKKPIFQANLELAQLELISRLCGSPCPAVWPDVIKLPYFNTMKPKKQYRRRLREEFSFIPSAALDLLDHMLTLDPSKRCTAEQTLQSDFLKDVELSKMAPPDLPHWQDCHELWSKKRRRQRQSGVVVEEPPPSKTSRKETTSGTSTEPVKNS
T1 sequence (O75909 whole entry partner, species assumed, the tested form may be a part): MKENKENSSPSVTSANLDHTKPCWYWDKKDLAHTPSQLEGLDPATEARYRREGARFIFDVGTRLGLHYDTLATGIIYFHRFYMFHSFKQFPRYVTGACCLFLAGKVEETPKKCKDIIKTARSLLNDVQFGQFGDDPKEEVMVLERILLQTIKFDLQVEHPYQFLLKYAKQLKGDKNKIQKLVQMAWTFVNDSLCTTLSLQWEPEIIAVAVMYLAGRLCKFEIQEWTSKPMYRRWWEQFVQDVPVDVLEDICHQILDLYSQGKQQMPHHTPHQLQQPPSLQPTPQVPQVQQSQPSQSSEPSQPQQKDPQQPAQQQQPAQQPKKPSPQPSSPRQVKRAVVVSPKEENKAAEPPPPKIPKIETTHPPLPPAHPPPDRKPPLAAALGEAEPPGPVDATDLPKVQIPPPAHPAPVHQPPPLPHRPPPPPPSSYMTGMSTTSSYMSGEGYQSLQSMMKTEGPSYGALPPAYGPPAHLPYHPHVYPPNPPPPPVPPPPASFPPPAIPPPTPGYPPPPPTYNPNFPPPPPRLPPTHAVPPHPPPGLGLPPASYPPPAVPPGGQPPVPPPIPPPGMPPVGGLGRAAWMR
CDK7/Cyclin H/MAT1 complex, sequence (P50613 whole entry, species assumed): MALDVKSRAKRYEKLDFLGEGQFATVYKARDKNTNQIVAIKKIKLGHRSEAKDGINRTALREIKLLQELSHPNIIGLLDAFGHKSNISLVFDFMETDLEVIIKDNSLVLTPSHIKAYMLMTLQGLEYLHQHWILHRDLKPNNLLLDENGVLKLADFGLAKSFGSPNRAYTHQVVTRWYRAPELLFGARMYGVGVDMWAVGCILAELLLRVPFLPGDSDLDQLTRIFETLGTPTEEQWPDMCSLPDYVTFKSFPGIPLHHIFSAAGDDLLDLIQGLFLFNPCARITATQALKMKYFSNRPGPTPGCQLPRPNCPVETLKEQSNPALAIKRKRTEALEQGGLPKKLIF
CDK7/Cyclin H/MAT1 complex, sequence (P51946 whole entry partner, species assumed): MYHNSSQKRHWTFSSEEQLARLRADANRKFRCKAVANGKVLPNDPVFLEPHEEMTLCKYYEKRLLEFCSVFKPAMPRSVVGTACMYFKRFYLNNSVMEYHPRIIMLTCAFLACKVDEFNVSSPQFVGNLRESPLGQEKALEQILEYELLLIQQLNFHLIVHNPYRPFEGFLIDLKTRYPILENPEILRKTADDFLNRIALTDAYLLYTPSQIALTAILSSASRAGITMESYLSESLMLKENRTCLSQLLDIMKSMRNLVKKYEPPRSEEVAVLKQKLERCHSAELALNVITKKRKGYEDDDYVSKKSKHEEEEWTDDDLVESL
CDK7/Cyclin H/MAT1 complex, sequence (P51948 whole entry partner, species assumed): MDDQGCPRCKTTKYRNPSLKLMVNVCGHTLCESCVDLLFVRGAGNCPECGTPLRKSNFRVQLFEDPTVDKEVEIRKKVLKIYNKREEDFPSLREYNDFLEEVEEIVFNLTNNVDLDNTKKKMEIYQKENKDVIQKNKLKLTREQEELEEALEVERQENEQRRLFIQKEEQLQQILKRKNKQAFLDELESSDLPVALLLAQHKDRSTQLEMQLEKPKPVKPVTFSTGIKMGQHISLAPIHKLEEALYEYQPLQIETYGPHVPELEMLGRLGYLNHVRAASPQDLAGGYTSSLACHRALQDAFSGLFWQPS
CDK9/Cyclin T1 complex, sequence (P50750 whole entry, species assumed): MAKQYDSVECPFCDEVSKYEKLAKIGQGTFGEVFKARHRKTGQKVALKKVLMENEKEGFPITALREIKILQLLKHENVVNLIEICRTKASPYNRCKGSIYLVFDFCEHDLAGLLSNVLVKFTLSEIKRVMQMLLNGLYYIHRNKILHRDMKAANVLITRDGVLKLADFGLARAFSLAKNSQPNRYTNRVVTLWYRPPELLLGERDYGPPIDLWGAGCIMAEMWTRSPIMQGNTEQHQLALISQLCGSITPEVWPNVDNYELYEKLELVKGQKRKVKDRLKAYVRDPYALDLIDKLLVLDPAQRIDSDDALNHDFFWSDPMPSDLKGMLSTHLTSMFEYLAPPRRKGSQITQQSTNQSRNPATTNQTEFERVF
CDK9/Cyclin T1 complex, sequence (O60563 whole entry partner, species assumed): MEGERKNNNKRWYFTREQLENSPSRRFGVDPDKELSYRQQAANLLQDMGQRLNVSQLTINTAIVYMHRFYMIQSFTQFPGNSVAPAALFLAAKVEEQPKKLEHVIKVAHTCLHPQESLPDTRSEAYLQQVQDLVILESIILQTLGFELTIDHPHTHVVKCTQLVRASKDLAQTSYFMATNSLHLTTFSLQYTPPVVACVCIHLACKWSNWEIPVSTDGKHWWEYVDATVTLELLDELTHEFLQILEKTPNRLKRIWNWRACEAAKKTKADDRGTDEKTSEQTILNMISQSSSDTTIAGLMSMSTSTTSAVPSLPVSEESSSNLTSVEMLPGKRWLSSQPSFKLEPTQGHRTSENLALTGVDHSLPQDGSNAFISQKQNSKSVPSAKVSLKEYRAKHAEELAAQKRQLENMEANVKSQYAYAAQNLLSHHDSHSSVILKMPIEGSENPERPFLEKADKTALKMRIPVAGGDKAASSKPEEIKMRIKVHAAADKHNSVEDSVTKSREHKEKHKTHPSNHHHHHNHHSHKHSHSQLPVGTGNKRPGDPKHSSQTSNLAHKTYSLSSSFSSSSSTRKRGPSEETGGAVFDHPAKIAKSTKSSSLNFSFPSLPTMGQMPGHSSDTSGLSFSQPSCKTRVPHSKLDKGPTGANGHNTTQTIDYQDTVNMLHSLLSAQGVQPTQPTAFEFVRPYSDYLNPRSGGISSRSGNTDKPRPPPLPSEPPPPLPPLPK

| IC50 [1] | IC50 (CDK9/Cyclin T1 complex) | IC50 [2] | IC50 (CDK2/Cyclin E1 complex) | SMILES | IC50 (A673 cells; Homo sapiens, A673, 72 h) | IC50 (HCC70 cells; [3]) | IC50 (A673 cells) | also measured |
| --- | --- | --- | --- | --- | --- | --- | --- | --- |
| < 20 nM | 200 to 5000 nM | 200 to 5000 nM | 200 to 5000 nM | CCS(=O)(=O)c1cccc2c(-c3nc(N[C@H]4CCCNC4)ncc3C(F)(F)F)c[nH]c12 [Compound 286] | 200 to 5000 nM | 1000 to 5000 nM | – | – |
| < 20 nM | 200 to 5000 nM | 20 to 200 nM | 200 to 5000 nM | FC(F)(F)c1cnc(N[C@H]2CCCNC2)nc1-c1n[nH]c2ccccc12 [Compound 103] | 20 to 200 nM | < 100 nM | – | – |
| 20 to 200 nM | > 5000 nM | 200 to 5000 nM | > 5000 nM | N#Cc1ccc2c(-c3nc(N[C@@H]4CNC[C@H](O)C4)ncc3C(F)(F)F)c[nH]c2c1 [Compound 370, 3-[2-[[(3S,5R)-5-hydroxy-3-piperidyl]amino]-5-(trifluoromethyl)pyrimidin-4-yl]-1H-indole-6-carbonitrile] | – | 100 to 1000 nM | 200 to 5000 nM | IC50 ([1]; listed as 130): > 5000 nM; IC50 ([2]; listed as 130): > 5000 nM |
| 20 to 200 nM | > 5000 nM | > 5000 nM | > 5000 nM | O=S1(=O)CCn2cc(-c3nc(N[C@H]4CCCNC4)ncc3C(F)(F)F)c3cccc1c32 [Compound 348, (S)-6-(2-(piperidin-3-ylamino)-5-(trifluoromethyl)pyrimidin-4-yl)-2,3-dihydro-[1,4]thiazino[2,3,4-hi]indole 1,1-dioxide] | – | 100 to 1000 nM | 20 to 200 nM | IC50 ([1]; listed as 117): 20 to 200 nM; IC50 (CDK9/Cyclin T1 complex; listed as 117): 200 to 5000 nM; IC50 ([2]; listed as 117): 200 to 5000 nM; IC50 (CDK2/Cyclin E1 complex; listed as 117): 200 to 5000 nM |
| < 20 nM | > 5000 nM | > 5000 nM | > 5000 nM | CCc1cnc(N[C@H]2CCCNC2)nc1-c1c[nH]c2nc(C#N)ccc12 [Compound 287, (S)-3-(5-ethyl-2-(piperidin-3-ylamino)pyrimidin-4-yl)-1H-pyrrolo[2,3-b]pyridine-6-carbonitrile] | 20 to 200 nM | 100 to 1000 nM | – | – |
| 200 to 5000 nM | > 5000 nM | > 5000 nM | > 5000 nM | Cn1cc(-c2nc(NC3CCCNC3)ncc2C(F)(F)F)c2ccc(C#N)nc21 (stereo not shown) [Compound 273] | 200 to 5000 nM | 1000 to 5000 nM | – | – |
| < 20 nM | 200 to 5000 nM | 200 to 5000 nM | 200 to 5000 nM | N#C[C@H]1CCN(C(=O)c2ccc3c(-c4nc(N[C@H]5CCCNC5)ncc4C(F)(F)F)c[nH]c3c2)C1 [Compound 293, (3S)-1-[3-[2-[[(3S)-3-piperidyl]amino]-5-(trifluoromethyl)pyrimidin-4-yl]-1H-indole-6-carbonyl] pyrrolidine-3-carbonitrile] | – | 100 to 1000 nM | 200 to 5000 nM | IC50 ([1]; listed as 108): 20 to 200 nM; IC50 (CDK9/Cyclin T1 complex; listed as 108): 200 to 5000 nM; IC50 ([2]; listed as 108): 200 to 5000 nM; IC50 (CDK2/Cyclin E1 complex; listed as 108): 200 to 5000 nM |
| < 20 nM | 200 to 5000 nM | 200 to 5000 nM | 200 to 5000 nM | Cn1ccc(-c2ccc3c(-c4nc(N[C@H]5CCCNC5)ncc4C(F)(F)F)c[nH]c3c2)n1 [Compound 303, 4-[6-(1-methylpyrazol-3-yl)-1H-indol-3-yl]-N-[(3S)-3-piperidyl]-5-(trifluoromethyl) pyrimidin-2-amine] | – | 100 to 1000 nM | 200 to 5000 nM | IC50 ([1]; listed as 113): 20 to 200 nM; IC50 (CDK9/Cyclin T1 complex; listed as 113): > 5000 nM; IC50 ([2]; listed as 113): 200 to 5000 nM; IC50 (CDK2/Cyclin E1 complex; listed as 113): > 5000 nM |
| 20 to 200 nM | > 5000 nM | 200 to 5000 nM | 200 to 5000 nM | O=C(c1ccc2c(-c3nc(N[C@H]4CCCNC4)ncc3C(F)(F)F)c[nH]c2c1)N1CCCC1 [Compound 278, [3-[2-[[(3S)-3-piperidyl]amino]-5-(trifluoromethyl)pyrimidin-4-yl]-1H-indol-6-yl]-Pyrrolidin-1-yl-methanone] | 20 to 200 nM | 100 to 1000 nM | – | – |
| < 20 nM | 200 to 5000 nM | 200 to 5000 nM | 200 to 5000 nM | CCc1cnc(NC2CCCNC2)nc1-c1c[nH]c2c(F)cccc12 (stereo not shown) [Compound 144] | 20 to 200 nM | 100 to 1000 nM | – | – |
| 20 to 200 nM | 200 to 5000 nM | 200 to 5000 nM | 200 to 5000 nM | FC(F)n1ccc(-c2ccc3c(-c4nc(N[C@H]5CCCNC5)ncc4C(F)(F)F)c[nH]c3c2)n1 [Compound 289, 4-[6-[1-(difluoromethyl)pyrazol-3-yl]-1H-indol-3-yl]-N-[(3S)-3-piperidyl]-5-(trifluoromethyl) pyrimidin-2-amine] | 20 to 200 nM | 100 to 1000 nM | – | – |
| < 20 nM | 200 to 5000 nM | 200 to 5000 nM | 200 to 5000 nM | CCc1cnc(N[C@H]2CCCNC2)nc1-c1n[nH]c2nc(C#N)ccc12 [Compound 277, (S)-3-(5-ethyl-2-(piperidin-3-ylamino)pyrimidin-4-yl)-1H-pyrazolo[3,4-b]pyridine-6-carbonitrile] | 20 to 200 nM | 100 to 1000 nM | – | – |
| < 20 nM | 200 to 5000 nM | 200 to 5000 nM | 200 to 5000 nM | CN1CCN(c2cccc3c(-c4nc(N[C@H]5CCCNC5)ncc4C(F)(F)F)c[nH]c23)C1=O [Compound 176] | < 20 nM | 100 to 1000 nM | – | – |
| < 20 nM | 200 to 5000 nM | 20 to 200 nM | 20 to 200 nM | FC(F)(F)c1cnc(N[C@H]2CCCNC2)nc1-c1c[nH]c2c(-c3ccnnc3)cccc12 [Compound 180] | < 20 nM | < 100 nM | – | – |
| < 20 nM | 200 to 5000 nM | 200 to 5000 nM | 200 to 5000 nM | CS(=O)(=O)c1c(C#N)ccc2c(-c3nc(N[C@H]4CCCNC4)ncc3C(F)(F)F)c[nH]c12 [Compound 232, 7-methylsulfonyl-3-[2-[[(3S)-3-piperidyl]amino]-5-(trifluoromethyl)pyrimidin-4-yl]-1H-indole-6-carbonitrile] | < 20 nM | < 100 nM | – | – |
| < 20 nM | 200 to 5000 nM | 200 to 5000 nM | 200 to 5000 nM | CS(=O)(=O)c1c(C#N)ccc2c(-c3nc(N[C@H]4CCCNC4)ncc3Cl)c[nH]c12 [Compound 294, 3-[5-chloro-2-[[(3S)-3-piperidyl]amino]pyrimidin-4-yl]-7-methylsulfonyl-1H-indole-6-carbonitrile] | – | < 100 nM | 20 to 200 nM | IC50 ([1]; listed as 109): < 20 nM; IC50 (CDK9/Cyclin T1 complex; listed as 109): 200 to 5000 nM; IC50 ([2]; listed as 109): 20 to 200 nM; IC50 (CDK2/Cyclin E1 complex; listed as 109): 200 to 5000 nM; IC50 (HCC70 cells; listed as 109, read-out: Inhibition of Proliferation of HCC70 Cells (calculated IC50)): 100 to 1000 nM |
| < 20 nM | > 5000 nM | > 5000 nM | > 5000 nM | CCc1cnc(N[C@H]2CCCNC2)nc1-c1c[nH]c2cc(C#N)ccc12 [Compound 246] | – | – | 200 to 5000 nM | IC50 (HCC70 cells; read-out: Inhibition of Proliferation of HCC70 Cells (calculated IC50)): 100 to 1000 nM |
